In patent EP0659743A1, “Piperidine derivatives as inhibitors of platelet aggregation and their preparation” (HOECHST AKTIENGESELLSCHAFT, priority 1993, dated 1995):

Tests used:
Human Platelet = test: In-vitro Human Platelet Aggregation in PRP (ADP induced); format: cell-based; details: PRP (platelet rich plasma), 37°C, read-out: IC₅₀(µM) Inhibitor of ADP induced Platelet aggregation
Method: The compounds of the above invention are tested for platelet binding inhibitory activity in the following assays: • 1. In-vitro Human Platelet Aggregation in PRP: Blood is drawn from healthy human volunteers who had no medication for at least two weeks. 8.4 ml of venous blood are collected into 1.4 ml of ACD solution (citric acid 0.8 %, sodium citrate 2.2 %, hirudin 0.6 u/ml) and centrifuged for 10 min. at 120 g. The platelet rich plasma (PRP) is carefully removed and remaining blood is further centrifuged at 1200 g for 15 min. to separate platelet poor plasma (PPP). For aggregation studies the aggregometer is adjusted by using PPP and PRP. ADP is then added tp PRP which is kept at 37°C and stirred constantly at 1000 rpm. The aggregation of platelets causes an increase in transparency of PRP which is recorded. • 2. Preparation of Gel Filtered Platelets (GFP): Platelet rich plasma (PRP) is collected as mentioned in the above procedure. Its pH is adjusted to 6.5 with ACD solution and then centrifuged at 285 g for 20 min.. The resulting pellet is resuspended in Tyrode's buffer (NaCl, 7.01 g/l; KCl, 0194 g/l; NaHCO₃, 1.01 g/l; Glucose, 1.09 g/l; NaH₂PO₄, 0.061 g/l; Hepes, 2.380 g/l; albumin, 3.5 g/l) and the platelet suspension is applied on to a ^RSepharose CL 20 column. Equilibrium and elution is done with Tyrode's buffer. Platelets are recovered in the void volume. Final platelet concentration is adjusted to 4 X 108 platelets/ml. For the aggregation studies, GFP in Tyrodes buffer is mixed with calcium chloride (final concentration […]) and an agonist (ADP or Thrombin) with or without test compound (1 to 300 µM) and incubated at 37°C for 3 min.. After the addition of fibrinogen (final conc. 1 mg/ml) the aggregation is recorded.
Aggregation maximum for PRP or GFP without any inhibitor is taken as 100 % aggregation and is compared with aggregation maximum of RPR or GFP incubated with the test compound.

[1] = system: Gel Filtered Platelets (GFP); test: ADP induced aggregation of Gel Filtered Platelets (GFP); format: cell-based; details: Homo sapiens, Platelet, 0.05 h, GFP (gel filtered platelets) in Tyrode's buffer, fibrinogen 1 mg/ml, 37°C for 3 min, read-out: IC₅₀(µM) Inhibitor of ADP induced Platelet aggregation
Method: The compounds of the above invention are tested for platelet binding inhibitory activity in the following assays: • 1. In-vitro Human Platelet Aggregation in PRP: Blood is drawn from healthy human volunteers who had no medication for at least two weeks. 8.4 ml of venous blood are collected into 1.4 ml of ACD solution (citric acid 0.8 %, sodium citrate 2.2 %, hirudin 0.6 u/ml) and centrifuged for 10 min. at 120 g. The platelet rich plasma (PRP) is carefully removed and remaining blood is further centrifuged at 1200 g for 15 min. to separate platelet poor plasma (PPP). For aggregation studies the aggregometer is adjusted by using PPP and PRP. ADP is then added tp PRP which is kept at 37°C and stirred constantly at 1000 rpm. The aggregation of platelets causes an increase in transparency of PRP which is recorded. • 2. Preparation of Gel Filtered Platelets (GFP): Platelet rich plasma (PRP) is collected as mentioned in the above procedure. Its pH is adjusted to 6.5 with ACD solution and then centrifuged at 285 g for 20 min.. The resulting pellet is resuspended in Tyrode's buffer (NaCl, 7.01 g/l; KCl, 0194 g/l; NaHCO₃, 1.01 g/l; Glucose, 1.09 g/l; NaH₂PO₄, 0.061 g/l; Hepes, 2.380 g/l; albumin, 3.5 g/l) and the platelet suspension is applied on to a ^RSepharose CL 20 column. […] After the addition of fibrinogen (final conc. 1 mg/ml) the aggregation is recorded. […]

| SMILES | IC50 (Human Platelet) | IC50 [1] |
| --- | --- | --- |
| COC(=O)COc1ccc(C=CC(=O)c2c(OC)cc(OC)c(C3CCN(C)CC3O)c2O)cc1 (centres unmarked) [Compound 2] | 5.3 µM | 0.53 µM |
| COC(=O)COc1ccc(C=CC(=O)c2c(OC)cc(OC)c(C3CCN(C)CC3)c2O)cc1 [Compound 6] | 17 µM | – |
| COC(=O)COc1ccc(CCC(=O)c2c(OC)cc(OC)c(C3CCN(C)CC3)c2O)cc1 [Compound 7] | 8 µM | 2 µM |
